In patent publication US20260226068A1, “IMIDAZOTRIAZINE IL-17A MODULATORS AND USES THEREOF” (DICE ALPHA, INC., priority 2023, published 2026):

Assays:
IL-17A/F = target: T1, IL-17A/F (Homo sapiens, UniProt Q16552+Q96PD4); test: IL-17A/F HEK-Blue cell assay (SEAP reporter); format: cell-based; conditions: HEK-Blue IL-17A reporter cells, IL17A/F 5 ng/mL, 20 hours, SEAP read at A630; read-out: HEK-Blue IL17AF (IC50 for IL-17A/F inhibition)
T1 construct: purchased R&D Systems
T1 sequence (Q16552 24-155): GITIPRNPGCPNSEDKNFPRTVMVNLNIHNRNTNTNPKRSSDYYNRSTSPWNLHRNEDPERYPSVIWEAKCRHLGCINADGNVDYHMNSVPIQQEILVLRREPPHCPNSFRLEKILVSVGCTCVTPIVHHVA
T1 sequence (Q96PD4 31-163): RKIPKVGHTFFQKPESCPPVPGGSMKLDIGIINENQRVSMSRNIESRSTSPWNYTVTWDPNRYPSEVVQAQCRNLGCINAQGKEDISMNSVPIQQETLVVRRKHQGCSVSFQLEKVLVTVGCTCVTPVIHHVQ
Procedure: (§1) The HEK-Blue IL-17A reporter cell line (Fisher #NC 1408637) was used for cell-based IL-17A/A inhibition assays. Cells were grown and prepared for assays according to the manufacturer's instructions. This cell line consists of HEK 293 cells that were designed to expressed IL-17RA, IL-17RC, and the Act1 adapter molecule, the combination of which, when stimulated by IL-17A/A or IL17A/F activates a […] promoter and drives expression of the recombinant Secreted Alkaline Phosphatase (SEAP) gene. Media from the cells is then added to a development reagent (Quanti-Blue Substrate, Fisher #NC971 1613), and read at A630.
(§2) Compounds were dispensed in DMSO to an empty clear 384-well tissue culture plate in a titration ranging from 10 μM to 27 pM, with DMSO added to every well to a final concentration of […]. Cells were then added to the plate (45 μL/well at a concentration of 280,000 cells/mL). IL17A/A (Genscript #Z03228) or IL17A/F (R&D Systems) was added to the plate to a final concentration of 5 ng/mL and a final well volume of 50 μL. The cells, compound, and IL-17A/A or IL17A/F were then incubated for 20 hours before media was removed for SEAP analysis. The resulting inhibition curve was then analyzed using Dotmatics' integrated 4-parameter fit screening protocol to generate IC50 values.
(§3) Table 2 includes IC50 values for IL-17A/A and IL-17A/F inhibition of selected compounds; with compounds having a IC50 of A<100 nM; B 100-1000 nM; and C>1000 nM.

IL-17A/A = target: T2, IL-17A/A (Homo sapiens, UniProt Q16552); test: IL-17A/A HEK-Blue cell assay (SEAP reporter); format: cell-based; conditions: HEK-Blue IL-17A reporter cells, IL17A/A 5 ng/mL, 20 hours, SEAP read at A630; read-out: HEK-Blue IL17AA (IC50 for IL-17A/A inhibition)
T2 construct: purchased Genscript Z03228
T2 sequence (Q16552 24-155): T1 sequence (Q16552 24-155)
Procedure: as §1, §2, §3

| SMILES | IC50 (IL-17A/F) [nM] | IC50 (IL-17A/A) [nM] |
| --- | --- | --- |
| CCn1nccc1C(=O)N[C@H](c1cn2nc(CC3C[C@@H](C(F)(F)F)CNC3=O)cnc2n1)[C@H]1CC[C@H](C)CC1 (single isomer, unassigned) [Compound 1] | > 1000 | < 100 |
| CCn1nccc1C(=O)N[C@H](c1cn2nc(CC3C[C@@H](C(F)(F)F)CNC3=O)cnc2n1)[C@H]1CC[C@H](C)CC1 (single isomer, unassigned) [Compound 2] | > 1000 | 100 to 1000 |
| CCn1nccc1C(=O)N[C@H](c1cn2nc(CC3C[C@@H](C(F)(F)F)CNC3=O)cnc2n1)C1CCC(F)(F)CC1 (single isomer, unassigned) [Compound 4] | > 1000 | < 100 |
| CCn1nccc1C(=O)N[C@H](c1cn2nc(CC3C[C@@H](C(F)(F)F)CNC3=O)cnc2n1)C1CCC(F)(F)CC1 (single isomer, unassigned) [Compound 5] | > 1000 | 100 to 1000 |
| O=C(N[C@H](c1cn2nc(CC3C[C@@H](C(F)(F)F)CNC3=O)c(N3CCOCC3)nc2n1)C1CCC(F)(F)CC1)c1nonc1C1CC1 (single isomer, unassigned) [Compound 20] | > 1000 | < 100 |
| O=C(N[C@H](c1cn2nc(CC3C[C@@H](C(F)(F)F)CNC3=O)c(N3CCOCC3)nc2n1)C1CCC(F)(F)CC1)c1nonc1C1CC1 (single isomer, unassigned) [Compound 21] | > 1000 | < 100 |
| CCn1nccc1C(=O)N[C@H](c1cn2nc(CC3C[C@@H](C(F)(F)F)CNC3=O)c(N3CCOCC3)nc2n1)[C@H]1CC[C@H](C)CC1 (single isomer, unassigned) [Compound 22] | 100 to 1000 | < 100 |
| CCn1nccc1C(=O)N[C@H](c1cn2nc(CC3C[C@@H](C(F)(F)F)CNC3=O)c(N3CCOCC3)nc2n1)[C@H]1CC[C@H](C)CC1 (single isomer, unassigned) [Compound 23] | > 1000 | < 100 |
| O=C(N[C@H](c1cn2nc(C[C@@H]3C[C@@H](C(F)(F)F)CNC3=O)cnc2n1)C1CCC(F)(F)CC1)c1nonc1C1CC1 (single isomer, unassigned) [Compound 33] | > 1000 | 100 to 1000 |
| CCn1nccc1C(=O)N[C@H](c1cn2nc(CC3C[C@@H](C(F)(F)F)CNC3=O)c(N(C)C)nc2n1)C1CCC(F)(F)CC1 (single isomer, unassigned) [Compound 48] | 100 to 1000 | < 100 |
| CCn1nccc1C(=O)N[C@H](c1cn2nc(CC3C[C@@H](C(F)(F)F)CNC3=O)c(N(C)C)nc2n1)C1CCC(F)(F)CC1 (single isomer, unassigned) [Compound 49] | > 1000 | < 100 |
| CCn1nccc1C(=O)N[C@H](c1cn2nc(CC3C[C@H](C(F)(F)F)CNC3=O)c(N(C)C)nc2n1)C1CCC(F)(F)CC1 (single isomer, unassigned) [Compound 51] | > 1000 | 100 to 1000 |
| CCn1nccc1C(=O)N[C@H](c1cn2nc(C[C@@H]3CC(F)(F)CNC3=O)cnc2n1)C1CCC(F)(F)CC1 (single isomer, unassigned) [Compound 63] | > 1000 | 100 to 1000 |
| CCn1nccc1C(=O)N[C@H](c1cn2nc(CC3CC(F)(F)CNC3=O)c(N3CCOCC3)nc2n1)C1CCC(F)(F)CC1 (single isomer, unassigned) [Compound 64] | > 1000 | < 100 |
| CCn1nccc1C(=O)N[C@H](c1cn2nc(CC3CC(F)(F)CNC3=O)c(N3CCOCC3)nc2n1)C1CCC(F)(F)CC1 (single isomer, unassigned) [Compound 65] | > 1000 | < 100 |
| CCn1nccc1C(=O)N[C@H](c1cn2nc(CC3C[C@H](C(F)(F)F)CNC3=O)cnc2n1)C1CCC(F)(F)CC1 (stereo partly drawn) [Compound 14, N—((S)-(4,4-difluorocyclohexyl)(2-(((5S)-2-oxo-5-(trifluoromethyl)piperidin-3-yl)methyl)imidazo[1,2-b][1,2,4]triazin-6-yl)methyl)-1-ethyl-1H-pyrazole-5-carboxamide] |  | 100 to 1000 |
| CCn1nccc1C(=O)N[C@H](c1cn2nc(C[C@H]3C[C@H](C(F)(F)F)CNC3=O)cnc2n1)C1CCC(F)(F)CC1 [Compound 52] |  | 100 to 1000 |
| CC(C)n1nccc1C(=O)N[C@H](c1cn2nc(C[C@@H]3C[C@@H](C(F)(F)F)CNC3=O)cnc2n1)C1CCC(F)(F)CC1 [Compound 202] |  | 100 to 1000 |
| CCn1nccc1C(=O)N[C@H](c1cn2nc(C[C@H]3C[C@@H](C(F)(F)F)CNC3=O)c(C(C)(C)F)nc2n1)C1CCC(F)(F)CC1 [Compound 233, N—((S)-(4,4-difluorocyclohexyl)(3-(2-fluoropropan-2-yl)-2-(((3R,5R)-2-oxo-5-(trifluoromethyl)piperidin-3-yl)methyl)imidazo[1,2-b][1,2,4]triazin-6-yl)methyl)-1-ethyl-1H-pyrazole-5-carboxamide] |  | < 100 |
| CC(F)(F)C(=O)N[C@H](c1cn2nc(C[C@H]3C[C@@H](C(F)(F)F)CNC3=O)c(C3CCOCC3)nc2n1)C1CCC(F)(F)CC1 [Compound 438, N—((S)-(4,4-difluorocyclohexyl)(2-(((3R,5R)-2-oxo-5-(trifluoromethyl)piperidin-3-yl)methyl)-3-(tetrahydro-2H-pyran-4-yl)imidazo[1,2-b][1,2,4]triazin-6-yl)methyl)-2,2-difluoropropanamide] |  | 100 to 1000 |

The next lines start with the values.

| IC50 (IL-17A/F) [nM] | IC50 (IL-17A/A) [nM] | SMILES |
| --- | --- | --- |
| > 1000 | 100 to 1000 | CCn1nccc1C(=O)N[C@H](c1cn2nc(CC3C[C@@H](C(F)(F)F)CNC3=O)c(N3CCOCC3)nc2n1)C1CCC(F)(F)CC1 (mixture of isomers) [Compound 19, N-((1S)-(4,4-difluorocyclohexyl)(3-morpholino-2-(((5R)-2-oxo-5-(trifluoromethyl)piperidin-3-yl)methyl)imidazo[1,2-b][1,2,4]triazin-6-yl)methyl)-1-ethyl-1H-pyrazole-5-carboxamide] |
| 100 to 1000 | < 100 | CCn1nccc1C(=O)N[C@H](c1cn2nc(CC3C[C@@H](C(F)(F)F)CNC3=O)c(N3CCOCC3)nc2n1)C1CCC(F)(F)CC1 (single isomer, unassigned) [Compound 17] |
| > 1000 | < 100 | CCn1nccc1C(=O)N[C@H](c1cn2nc(CC3C[C@@H](C(F)(F)F)CNC3=O)c(N3CCOCC3)nc2n1)C1CCC(F)(F)CC1 (single isomer, unassigned) [Compound 18] |
| > 1000 | 100 to 1000 | CCn1nccc1C(=O)N[C@H](c1cn2nc(C[C@H]3C[C@@H](C(F)(F)F)CNC3=O)cnc2n1)[C@@H]1CCCC(F)(F)C1 (single isomer, unassigned) [Compound 31] |
| > 1000 | 100 to 1000 | CCn1nccc1C(=O)N[C@H](c1cn2nc(CC3C[C@H](C(F)(F)F)CNC3=O)c(N3CCOCC3)nc2n1)C1CCC(F)(F)CC1 (single isomer, unassigned) [Compound 50] |
| 100 to 1000 | < 100 | CCn1nccc1C(=O)N[C@H](c1cn2nc(CC3C[C@H](C(F)(F)F)CNC3=O)c(N3CCOCC3)nc2n1)C1CCC(F)(F)CC1 (single isomer, unassigned) [Compound 54] |
| 100 to 1000 | < 100 | CCn1nccc1C(=O)N[C@H](c1cn2nc(CC3C[C@H](C(F)(F)F)CNC3=O)c(N(C)C)nc2n1)C1CCC(F)(F)CC1 (single isomer, unassigned) [Compound 55] |
| 100 to 1000 | < 100 | CCn1nccc1C(=O)N[C@H](c1cn2nc(C[C@H]3C[C@@H](C(F)(F)F)CNC3=O)c(C3CCOC3)nc2n1)C1CCC(F)(F)CC1 (single isomer, unassigned) [Compound 61] |
| 100 to 1000 | < 100 | CCn1nccc1C(=O)N[C@H](c1cn2nc(C[C@H]3C[C@@H](C(F)(F)F)CNC3=O)c(C3CCOC3)nc2n1)C1CCC(F)(F)CC1 (single isomer, unassigned) [Compound 62] |
| < 100 | < 100 | CCn1nccc1C(=O)N[C@H](c1cn2nc(C[C@H]3C[C@@H](C(F)(F)F)CNC3=O)c(C3CCCOC3)nc2n1)[C@H]1CCCC(F)(F)C1 (single isomer, unassigned) [Compound 68] |
| 100 to 1000 | < 100 | CCn1nccc1C(=O)N[C@H](c1cn2nc(C[C@H]3C[C@@H](C(F)(F)F)CNC3=O)c(C3CCCOC3)nc2n1)[C@@H]1CCCC(F)(F)C1 (single isomer, unassigned) [Compound 71] |
